Test results: US20130096119A1, “Isoquinolin-3-Ylurea Derivatives” (priority 2010, published 2013)
Converted amounts (≈) assume the structure as drawn.

Test system: S. pneumoniae ATCC 49619
Assay: Minimal inhibitory concentration (MIC) by microdilution method (CLSI M7-A7)
Assay type: cell-based, Streptococcus pneumoniae
Details: for MIC: Streptococcus pneumoniae, ATCC49619, cation-adjusted Mueller-Hinton Broth supplemented with 3% (v/v) lysed horse blood
Method: Minimal inhibitory concentrations (MICs; mg/l) were determined in cation-adjusted Mueller-Hinton Broth (supplemented with 3% (v/v) lysed horse blood for testing Streptococcus pneumoniae) by a microdilution method following the description given in “Methods for Dilution Antimicrobial Susceptibility Tests for Bacteria that Grow Aerobically”, Approved standard, 7th ed., Clinical and Laboratory Standards Institute (CLSI) Document M7-A7, Wayne, Pa., USA, 2006.

Compound `CCNC(=O)Nc1cc2cc(-c3cccc(C(=O)OCC)c3)cc(C)c2cn1` [Example 84, 3-[3-(3-ethyl-ureido)-8-methyl-isoquinolin-6-yl]-benzoic acid ethyl ester] has an MIC of 0.5 µg/mL (≈ 1.32 µM).

Compound `CCNC(=O)Nc1cc2cc(-c3cnc4ccccc4c3)cc(C)c2cn1` [Example 36, 1-ethyl-3-(8-methyl-6-quinolin-3-yl-isoquinolin-3-yl)-urea] has an MIC of 0.125 µg/mL (≈ 0.351 µM).

In the case of `CCNC(=O)Nc1cc2cccc(Nc3cncc(OC)c3)c2cn1` [Example 177, 1-ethyl-3-[8-(5-methoxy-pyridin-3-ylamino)-isoquinolin-3-yl]-urea], the MIC is reported as 2 µg/mL (≈ 5.93 µM).

`CCNC(=O)Nc1cc2c(-c3cccc(S(N)(=O)=O)c3)ccc(C)c2cn1` [Example 13, 3-[3-(3-ethyl-ureido)-8-methyl-isoquinolin-5-yl]-benzenesulfonamide] was tested, and the MIC was 2 µg/mL (≈ 5.2 µM).

With `CCNC(=O)Nc1cc2cc(-c3ccc(C(C)=O)cc3)cc(C)c2cn1` [Example 108, 1-[6-(4-acetyl-phenyl)-8-methyl-isoquinolin-3-yl]-3-ethyl-urea] the MIC was 0.5 µg/mL (≈ 1.44 µM).

In the case of `CCNC(=O)Nc1cc2c(F)c(-c3cncc(C)c3)cc(Nc3cccnc3)c2cn1` [Example 235, 1-ethyl-3-[5-fluoro-6-(5-methyl-pyridin-3-yl)-8-(pyridin-3-ylamino)-isoquinolin-3-yl]urea], the MIC is reported as 0.25 µg/mL (≈ 0.6 µM).

For “N-{1-[3-(3-ethyl-ureido)-8-methyl-isoquinolin-6-yl]-phenyl}-acetamide [Example 18]”, the “MIC for S. pneumoniae ATCC 49619” value (cation-adjusted Mueller-Hinton Broth supplemented with 3% (v/v) lysed horse blood) was 0.25 µg/mL.

Work on `CCNC(=O)Nc1cc2cc(-c3ccncc3F)cc(C)c2cn1` [Example 97, 1-ethyl-3-[6-(3-fluoro-pyridin-4-yl)-8-methyl-isoquinolin-3-yl]-urea] yielded an MIC of 2 µg/mL (≈ 6.17 µM).

In the case of `CCNC(=O)Nc1cc2c(-c3ccnc(C)c3)ccc(Nc3ccc(C)nc3)c2cn1` [Example 245, 1-ethyl-3-[5-(2-methyl-pyridin-4-yl)-8-(6-methyl-pyridin-3-ylamino)-isoquinolin-3-yl]urea], the MIC is reported as 0.5 µg/mL (≈ 1.21 µM).

For `CCNC(=O)Nc1cc2c(CN(C)C)ccc(Nc3cccc(OC)n3)c2cn1` [Example 273, 1-{5-[(dimethylamino)methyl]-8-[(6-methoxy-pyridin-2-yl)amino]-isoquinolin-3-yl}-3-ethyl-urea], the MIC was 4 µg/mL (≈ 10.1 µM).

`CCNC(=O)Nc1cc2c(F)ccc(Cc3ccccc3)c2cn1` [Example 46, 1-(8-benzyl-5-fluoro-isoquinolin-3-yl)-3-ethyl-urea] gave an MIC of 1 µg/mL (≈ 3.09 µM).

`CCNC(=O)Nc1cc2c(-c3cn(C)cn3)ccc(C)c2cn1.Cl` [Example 283, 1-ethyl-3-[8-methyl-5-(1-methyl-1H-imidazol-4-yl)-isoquinolin-3-yl]-urea hydrochloride] gave an MIC of 8 µg/mL.

For `CCNC(=O)Nc1cc2cc(-c3ccoc3)cc(C)c2cn1` [Example 14, 1-ethyl-3-(6-furan-3-yl-8-methyl-isoquinolin-3-yl)-urea], the MIC was 4 µg/mL (≈ 13.5 µM).

For `CCNC(=O)Nc1cc2cccc(Nc3cccc(CC(=O)NCc4ccccc4)c3)c2cn1.Cl` [Example 210, N-benzyl-2-{3-[3-(3-ethyl-ureido)-isoquinolin-8-ylamino]phenyl}-acetamide hydrochloride], the MIC was 8 µg/mL.

With `CCNC(=O)Nc1cc2c(-c3ccc(CO)cc3)ccc(Oc3cccnc3)c2cn1` [Example 221, 1-ethyl-3-[5-(4-hydroxymethyl-phenyl)-8-(pyridin-3-yloxy)-isoquinolin-3-yl]-urea] the MIC was 0.5 µg/mL (≈ 1.21 µM).

`CCNC(=O)Nc1cc2cccc(CNc3ccccn3)c2cn1.Cl` [Example 263, 1-ethyl-3-[8-(pyridin-2-ylaminomethyl)-isoquinolin-3-yl]-urea hydrochloride] showed an MIC of 4 µg/mL.

With `CCNC(=O)Nc1cc2cccc(Nc3ccc(C)nc3)c2cn1.Cl` [Example 164, 1-ethyl-3-[8-(6-methyl-pyridin-3-ylamino)-isoquinolin-3-yl]-urea hydrochloride] the MIC was 2 µg/mL.

Compound `CCNC(=O)Nc1cc2cccc(Oc3cccnc3)c2cn1` [Example 147, 1-ethyl-3-[8-(pyridin-3-yloxy)-isoquinolin-3-yl]-urea] has an MIC of 4 µg/mL (≈ 13 µM).

In the case of `CCNC(=O)Nc1cc2cc(NCc3ccc(C(=O)O)cc3)cc(C)c2cn1` [Example 127, 4-{[3-(3-ethyl-ureido)-8-methyl-isoquinolin-6-ylamino]-methyl}-benzoic acid], the MIC is reported as 16 µg/mL (≈ 42.3 µM).

Compound `CCNC(=O)Nc1cc2c(-c3ccnc(N)c3)ccc(C)c2cn1` [Example 45, 1-[5-(2-amino-pyridin-4-yl)-8-methyl-isoquinolin-3-yl]-3-ethyl-urea] has an MIC of 2 µg/mL (≈ 6.22 µM).

In the case of `CCNC(=O)Nc1cc2cc(NCc3ccc(S(=O)(=O)NC)cc3)cc(C)c2cn1` [Example 189, 4-{[3-(3-ethyl-ureido)-8-methyl-isoquinolin-6-ylamino]-methyl}-N-methyl-benzenesulfonamide], the MIC is reported as 8 µg/mL (≈ 18.7 µM).

With `CCNC(=O)Nc1cc2cccc(COc3ccncc3)c2cn1.Cl` [Example 262, 1-ethyl-3-[8-(pyridin-4-yloxymethyl)-isoquinolin-3-yl]-urea hydrochloride] the MIC was 8 µg/mL.

For `CCNC(=O)Nc1cc2cc(-c3cccc(C(N)=O)c3)cc(C)c2cn1` [Example 31, 3-[3-(3-ethyl-ureido)-8-methyl-isoquinolin-6-yl]-benzamide], the MIC was 1 µg/mL (≈ 2.87 µM).

`CCNC(=O)Nc1cc2c(-c3ccnc(C)c3)ccc(Nc3cccnc3)c2cn1` [Example 229, 1-ethyl-3-[5-(2-methyl-pyridin-4-yl)-8-(pyridin-3-ylamino)-isoquinolin-3-yl]-urea] was tested, and the MIC was 0.25 µg/mL (≈ 0.627 µM).

Work on `CCNC(=O)Nc1cc2cccc(Nc3ccc(OC)c(C(N)=O)c3)c2cn1` [Example 242, 5-[3-(3-ethyl-ureido)-isoquinolin-8-ylamino]-2-methoxy-benzamide] yielded an MIC of 0.5 µg/mL (≈ 1.32 µM).

`CCNC(=O)Nc1cc2c(-c3ccncc3)ccc(Oc3cccnc3)c2cn1` [Example 222, 1-ethyl-3-[5-pyridin-4-yl-8-(pyridin-3-yloxy)-isoquinolin-3-yl]-urea] gave an MIC of 1 µg/mL (≈ 2.59 µM).

Work on `CCNC(=O)Nc1cc2cc(-c3cccc(NC(C)=O)c3)cc(Nc3cccnc3)c2cn1` [Example 236, N-{3-[3-(3-ethyl-ureido)-8-(pyridin-3-ylamino)-isoquinolin-6-yl]-phenyl}-acetamide] yielded an MIC of 0.5 µg/mL (≈ 1.14 µM).

`CCNC(=O)Nc1cc2cccc(NC(=O)c3ccccc3)c2cn1` [Example 70, N-[3-(3-ethyl-ureido)-isoquinolin-8-yl]-benzamide] gave an MIC of 16 µg/mL (≈ 47.8 µM).

For `CCNC(=O)Nc1cc2c(-c3ccnc(OC)c3)ccc(C)c2cn1` [Example 42, 1-ethyl-3-[5-(2-methoxy-pyridin-4-yl)-8-methyl-isoquinolin-3-yl]-urea], the MIC was 2 µg/mL (≈ 5.95 µM).

In the case of `CCNC(=O)Nc1cc2c(F)c(-c3cncc(C)c3)cc(C)c2cn1` [Example 141, 1-ethyl-3-[5-fluoro-8-methyl-6-(5-methylpyridin-3-yl)isoquinolin-3-yl]-urea], the MIC is reported as 0.5 µg/mL (≈ 1.48 µM).

Work on `CCNC(=O)Nc1cc2cccc(Nc3ccc(NC(C)=O)nc3)c2cn1.Cl` [Example 161, N-{5-[3-(3-ethyl-ureido)-isoquinolin-8-ylamino]-pyridin-2-yl}-acetamide hydrochloride] yielded an MIC of 2 µg/mL.

`CCNC(=O)Nc1cc2c(-c3cccc4cnccc34)ccc(C)c2cn1` [Example 67, 1-ethyl-3-(8-methyl-[5,5′]biisoquinolinyl-3-yl)-urea] gave an MIC of 16 µg/mL (≈ 44.9 µM).

For `CCNC(=O)Nc1cc2cc(-c3cncc(SC)c3)cc(C)c2cn1` [Example 96, 1-ethyl-3-[8-methyl-6-(5-methylsulfanyl-pyridin-3-yl)-isoquinolin-3-yl]-urea], the MIC was 2 µg/mL (≈ 5.67 µM).

Compound `CCNC(=O)Nc1cc2c(-c3cccc(O)c3)ccc(C)c2cn1` [Example 68, 1-ethyl-3-[5-(3-hydroxy-phenyl)-8-methyl-isoquinolin-3-yl]-urea] has an MIC of 4 µg/mL (≈ 12.4 µM).

Compound `CCNC(=O)Nc1cc2c(F)c(-c3cccc(NC(C)=O)c3)cc(Nc3cccnc3)c2cn1` [Example 234, N-{3-[3-(3-ethyl-ureido)-5-fluoro-8-(pyridin-3-ylamino)-isoquinolin-6-yl]phenyl}-acetamide] has an MIC of 0.25 µg/mL (≈ 0.545 µM).

Work on `CCNC(=O)Nc1cc2c(-c3cncc(C)c3)ccc(C)c2cn1` [Example 10, 1-ethyl-3-[8-methyl-5-(5-methyl-pyridin-3-yl)-isoquinolin-3-yl]-urea] yielded an MIC of 2 µg/mL (≈ 6.24 µM).

In the case of `CCNC(=O)Nc1cc2cccc(COc3ccccn3)c2cn1.Cl` [Example 261, 1-ethyl-3-[8-(pyridin-2-yloxymethyl)-isoquinolin-3-yl]-urea hydrochloride], the MIC is reported as 8 µg/mL.

With `CCNC(=O)Nc1cc2cc(-c3cncc(S(C)(=O)=O)c3)cc(C)c2cn1` [Example 103, 1-ethyl-3-[6-(5-methanesulfonyl-pyridin-3-yl)-8-methyl-isoquinolin-3-yl]-urea] the MIC was 0.5 µg/mL (≈ 1.3 µM).

With `CCNC(=O)Nc1cc2cccc(Nc3ccc(C(=O)O)c(C)c3)c2cn1` [Example 267, 4-[3-(3-ethyl-ureido)-isoquinolin-8-ylamino]-2-methyl-benzoic acid] the MIC was 2 µg/mL (≈ 5.49 µM).

`CCNC(=O)Nc1cc2cccc(Nc3nnc(C)o3)c2cn1` [Example 154, 1-ethyl-3-[8-(5-methyl-[1,3,4]oxadiazol-2-ylamino)-isoquinolin-3-yl]-urea] showed an MIC of 8 µg/mL (≈ 25.6 µM).

With `CCNC(=O)Nc1cc2c(CNC)ccc(C)c2cn1` [Example 269, 1-ethyl-3-(8-methyl-5-methylaminomethyl-isoquinolin-3-yl)-urea] the MIC was 8 µg/mL (≈ 29.4 µM).

`CCNC(=O)Nc1cc2cc(-c3ccco3)cc(C)c2cn1` [Example 78, 1-ethyl-3-(6-furan-2-yl-8-methyl-isoquinolin-3-yl)-urea] gave an MIC of 2 µg/mL (≈ 6.77 µM).

For `CCNC(=O)Nc1cc2cccc(Nc3cccc(CC(N)=O)c3)c2cn1.Cl` [Example 255, 2-{3-[3-(3-ethyl-ureido)-isoquinolin-8-ylamino]-phenyl}-acetamide hydrochloride], the MIC was 4 µg/mL.

`CCNC(=O)Nc1cc2cc(-c3cccc4cnccc34)cc(C)c2cn1` [Example 104, 1-ethyl-3-(8′-methyl-[5,6′]biisoquinolinyl-3′-yl)-urea] was tested, and the MIC was 8 µg/mL (≈ 22.4 µM).

With `CCNC(=O)Nc1cc2cccc(Nc3cccc(C(N)=O)c3)c2cn1.Cl` [Example 254, 3-[3-(3-ethyl-ureido)-isoquinolin-8-ylamino]-benzamide hydrochloride] the MIC was 1 µg/mL.
